Literature values in patent US7985768B2, “Compounds as cannabinoid receptor ligands” (priority 2006, dated 2011).

Tests used:
[1] = at fully efficacious doses
animal models of pain = details: models of acute thermal, persistent, inflammatory and neuropathic pain
rat = rat formalin model of persistent pain
rodent models of pain = details: neuropathic, incisional, chronic and acute inflammatory pain
[2] = tested on: apolipoprotein E knockout mice
microglial activation = details: in vitro
mice = details: model for post-menopausal osteoporosis
[3] = tested on: CB2 receptor knockout mice
[4] = tested on: CB1 receptor knockout mice

Compound: CN1CCCCC1Cn1cc(C(=O)c2cc([N+](=O)[O-])ccc2I)c2ccccc21 (stereo not shown) [AM-1241]
- CB1 receptor-mediated CNS side effects [1]: devoid of typical CB1 receptor-mediated CNS side effects
- analgesic efficacy (animal models of pain): robust analgesic efficacy

Compound: CCCCCCC(C)(C)c1cc(OC)c([C@@H]2C=C(CO)[C@@H]3C[C@H]2C3(C)C)c(OC)c1 [HU-308]
- antinociceptive response (rat): elicits an antinociceptive response

Compound: COc1ccc2c(c1)c(CCN1CCOCC1)c(C)n2C(=O)c1cccc(Cl)c1Cl [GW405833]
- CB1 receptor-mediated CNS side effects [1]: devoid of typical CB1 receptor-mediated CNS side effects
- efficacy in pain models (rodent models of pain): efficacious

Compound: SR144528
- effect on osteoclast activity (osteoclast): inhibit osteoclast activity
- effect on the actions of THC on atherosclerotic lesions ([2]; antagonist against THC): inhibited
- effect on the actions of JWH-133 (microglial activation; antagonist against JWH-133): blocked
- effect on ovariectomy-induced bone loss (mice): reverse ovariectomy-induced bone loss

Compound: (−)-Δ^9-Tetrahydrocannabinol [Δ^9-THC]
- immunosuppressive effects [3]: absent
- effect on progression of atherosclerotic lesions ([2]; low doses): slowed the progression of atherosclerotic lesions
- analgesic efficacy [4]: retains some analgesic efficacy

Compound: CCCC(C)(C)c1ccc2c(c1)OC(C)(C)[C@@H]1CC=C(C)C[C@@H]21 [JWH-133]
- effect on β-amyloid-induced microglial activation and neurotoxicity (microglial activation): abrogated
